Data reported in paper PMC12030059, “Mechanistic Advances in the Therapeutic Application of Bixin for Lung Inflammation In Vitro and In Vivo” (Pharmaceuticals, 2025).
Converted amounts (≈) assume the structure as drawn.

Legend:
RAW 264.7 cells = assay: Wound healing migration assay; assay type: cell-based; settings: 24 h, mitomycin C pretreated; for cell migration (wound closure), compound alone: 200 μM, no stimulus; for cell migration induced by CSE: CSE 5% plus compound
Description: RAW 264.7 cells were seeded in a 24-well plate (4.0 × 10^5 cells/well) and cultured until maximum confluence. Cells were then treated with mitomycin C (5 μg/mL) in FBS-free DMEM for 2 h, followed by washing with PBS. A linear scratch was made with a 200 μL pipette tip in each well. Cells were then stimulated for 24 h with the stimuli diluted in DMEM supplemented with 1% (v/v) FBS. Wound closure was monitored by capturing images at 0 and 24 h. The area of wound closure in each image was measured at five different points using a ruler tool, and an average was calculated for each image and condition. Cell migration was quantified as the percentage of wound closure at 24 h compared to the area at 0 h for each group.

Rat plasma stability = assay type: in vitro ADME; settings: over 4 h, 50 μM, 37 °C
Description: Two- to three-month-old healthy male Wistar rats (with an average weight of 385 g) were obtained from the Graduation Program in Pharmacology and Medicinal Chemistry Bioterium (CCS/UFRJ) (Rio de Janeiro, Brazil). The rats were fed ad libitum with Purina chow (Nuvilab, Curitiba, Brazil) and had unrestricted access to water. They were housed in a controlled environment maintained at 22 ± 2 °C, 50–70% relative humidity and a 12 h light/dark cycle. The local Animal Ethics Committee approved all experimental procedures (046/21).
A 10 mM stock solution of bixin was prepared in DMSO. Rat blood was collected with heparin and centrifuged. The plasma fraction was separated and diluted to 80% in PBS at pH 7.4. Then, 50 μL of the 80% rat plasma solution was added to a final volume of 250 μL of a KPE at pH 7.4 containing 50 μM of bixin. The bixin was incubated with rat plasma under these conditions for 0, 30, 60, 120, and 240 min with shaking in a water bath at 37 °C. […] The supernatant was collected, filtered through a 0.22 μm filter into a vial, and then analyzed by HPLC using an LC-20AD Shimadzu (Kyoto, Japan) system equipped with a 100-5C18 Kromasil (Bohus, Sweden) analytical column (4.6 mm × 250 mm, 5 μm) and an SPD M20A diode array detector Shimadzu (Kyoto, Japan) set to wavelengths of 271 nm and 457 nm. […]

Kinetic solubility assay = assay type: physicochemical; settings: aqueous buffer, kinetic from dmso stock, 37 °C
Description: These solutions were incubated in a shaking water bath at 37 °C for 4 and 24 h. Immediately after each incubation period, the samples were centrifuged at 21,000× g Universal Centrifuge 320R Hettich (Tuttlingen, Germany) at 22 °C. The supernatant was collected, filtered through a 0.44 μm Millipore filter (Sigma-Aldrich—Saint Louis, MO, USA) into a vial, and analyzed using a HPLC LC-20AD Shimadzu (Kyoto, Japan) coupled with a DAD detector set at 457 nm. The mobile phase consisted of acetonitrile and methanol (85:15 v/v) using a 100-5C18 Kromasil (Bohus, Sweden) analytical column (4.6 mm × 250 mm, 5 μm) as the stationary phase in isocratic mode at 22 °C with a flow rate of 1 mL/min. A calibration curve was prepared using bixin in acetonitrile at concentrations ranging from 0 to 200 μM and analyzed under the same HPLC conditions. LogS was calculated as the base-10 logarithm of the solubility (in μM) for each time point.

[1] = system: C57BL/6 mice challenged with intranasal LPS; assay: Intranasal LPS lung inflammation in mice, BAL cytokine ELISA; assay type: in vivo; settings: 200 mg/kg gavage, 5 days
Description: Eight-week-old male C57BL/6 mice were obtained from the Multidisciplinary Center for Biological Research in Laboratory Animal Science (CEMIB/UNICAMP, Campinas, Brazil). The mice were provided with Purina chow ad libitum (Nuvilab, Curitiba, Brazil) and had unrestricted access to water in a controlled environment maintained at 22 ± 2 °C, 50–70% relative humidity, and a 12 h light/dark cycle (EB-273B, Insight Equipamentos Ltd., São Paulo, Brazil). They were acclimatized for two weeks before the experimental procedures. All experimental protocols were approved by the local Animal Ethics Committee (096/19).
To evaluate the pharmacological effects of potassium bixinate, the animals were divided into four groups (n = 5–7): (1) Control, (2) KBx, (3) LPS, and (4) LPS + KBx. For five consecutive days, animals in groups 2 and 4 were treated by oral gavage with 200 mg/kg of potassium bixinate diluted in PBS in a final volume of 100 μL, while animals in groups 1 and 3 were treated with 100 μL of PBS. On the sixth day, animals in groups 3 and 4 were challenged intranasally with 60 μg of LPS (extracted from Escherichia coli O55:B5) diluted in PBS (10 μL), while animals in groups 1 and 2 received 10 μL of PBS intranasally. Sixteen hours after LPS/PBS instillation, the animals were euthanized by cervical dislocation under isoflurane sedation.
Immediately following euthanasia, BAL was collected using an intratracheal cannula. The lavage was performed with 1.5 mL of saline solution (3 × 0.5 mL). The collected lavage fluid was centrifuged at 600× g for 10 min, and the supernatant was stored at −80 °C for subsequent enzyme-linked immunosorbent assay (ELISA) analysis.
Cytokine levels (IL-10 and KC; #900-K53K and #900-K127K) were quantified in BAL samples using an ELISA kit, following the manufacturer’s instructions (PeproTech, Neuilly Sur-Seine, France). A sample volume of 25 μL was used without dilution. The enzymatic reaction was initiated with peroxidase and a specific substrate, and the reaction was stopped before measuring absorbance at 450 nm and 570 nm using a Varioskan LUX spectrometer (ThermoFisher Scientific, Waltham, MA, USA). A calibration curve was generated using standard concentrations of the target protein, with the method showing linearity across a range of 2000–0 pg/mL.

| initial concentration retained in plasma (Rat plasma stability) | solubility at 4 h (Kinetic solubility assay; PBS buffer, pH 7.4, 4 h) | solubility at 24 h (Kinetic solubility assay; PBS buffer, pH 7.4, 24 h) | solubility at 4 h (Kinetic solubility assay; buffered solution pH 2.0 (commercial), pH 2.0, 4 h) | solubility at 24 h (Kinetic solubility assay; buffered solution pH 2.0 (commercial), pH 2.0, 24 h) | solubility at 4 h (Kinetic solubility assay; potassium-phosphate-buffered saline solution (KPE) buffer, pH 6.6, 4 h) | solubility at 24 h (Kinetic solubility assay; potassium-phosphate-buffered saline solution (KPE) buffer, pH 6.6, 24 h) | Molecule | cell migration (wound closure), compound alone (RAW 264.7 cells) | cell migration induced by CSE (RAW 264.7 cells) | IL-10 levels in BAL, KBx alone ([1]; no LPS) | KC levels in BAL, KBx alone vs control ([1]; no LPS) | IL-10 levels in BAL, LPS + KBx ([1]; then LPS 60 μg i.n., 16 h) | KC levels in BAL, LPS + KBx vs LPS ([1]; then LPS 60 μg i.n., 16 h) |
| --- | --- | --- | --- | --- | --- | --- | --- | --- | --- | --- | --- | --- | --- |
| ~100% | 64 µM (≈ 25.2 µg/mL) | 43 µM (≈ 17 µg/mL) | < 1 µM | < 1 µM | 30 µM (≈ 11.8 µg/mL) | 11 µM (≈ 4.34 µg/mL) | COC(=O)/C=C/C(C)=C\C=C\C(C)=C\C=C\C=C(C)\C=C\C=C(C)\C=C\C(=O)O [HBx, (2E,4E,6E,8E,10E,12E,14E,16Z,18E)-20-methoxy-4,8,13,17-tetramethyl-20-oxoicosa-2,4,6,8,10,12,14,16,18-nonaenoic acid] | no migration occurred | completely inhibited | – | – | – | – |
| – | – | – | – | – | – | – | potassium bixinate [KBx] | no migration occurred | completely inhibited | comparable to the control | no significant effect on KC levels | can increase IL-10 production in the presence of LPS | significantly lower compared to the LPS group |
